Test results published in ChEMBL document CHEMBL2150933 (J Med Chem, 2012).
The source made the active and inactive calls. The calls are words filed in the database; no cut-off is given here.

Legend:
MDA-MB-468 = test: Cytotoxicity against human MDA-MB-468 cells after 48 hrs by SRB assay; assay type: functional; conditions: MDA-MB-468, 48 h
Mus musculus [1] = test: Toxicity in iv dosed CD1 mouse administered Q2D for 8 days; assay type: organism-based; conditions: mouse, in vivo, 192 h
[2] = Plasma concentration in CD1 mouse at 18 mg/kg, iv administered as single dose measured after 5 mins; assay type: ADME, organism-based; set-up: dose 18 mg/kg, route intravenous
COLO 205 [3] = test: Antitumor activity against human COLO205 cells xenografted in athymic nu/nu Harlan mouse assessed as tumor growth inhibition at 10 mg/kg, iv administered Q2D for 10 days relative to control; assay type: functional, organism-based; set-up: dose 10 mg/kg
SK-MEL-2 [4] = test: Antitumor activity against human SK-MEL-2 cells xenografted in athymic nu/nu Harlan mouse assessed as tumor growth inhibition at 10 mg/kg, iv administered Q2D for 10 days relative to control; assay type: functional, organism-based; set-up: dose 10 mg/kg
SK-MEL-2 [5] = test: Antitumor activity against human SK-MEL-2 cells xenografted in athymic nu/nu Harlan mouse assessed as tumor growth inhibition at 20 mg/kg, iv administered Q3D for 10 days relative to control; assay type: functional, organism-based; set-up: dose 20 mg/kg
Mus musculus [6] = test: Toxicity in athymic nu/nu Harlan mouse xenografted with human COLO205 cells assessed as adverse reactions at 10 mg/kg, iv administered Q2D for 10 days relative to control; assay type: organism-based, COLO 205; set-up: dose 10 mg/kg, route intravenous; conditions: in vivo, 240 h
Mus musculus [7] = test: Toxicity in athymic nu/nu Harlan mouse xenografted with human COLO205 cells assessed as adverse reactions at 20 mg/kg, iv administered Q3D for 10 days relative to control; assay type: organism-based, COLO 205; set-up: dose 20 mg/kg, route intravenous; conditions: in vivo, 240 h
Mus musculus [8] = test: Toxicity in athymic nu/nu Harlan mouse xenografted with human COLO205 cells assessed as mortality at 10 mg/kg, iv administered Q2D for 10 days relative to control; assay type: organism-based, COLO 205; set-up: dose 10 mg/kg, route intravenous; conditions: in vivo, 240 h
Mus musculus [9] = test: Toxicity in athymic nu/nu Harlan mouse xenografted with human SK-MEL-2 cells assessed as adverse reactions at 10 mg/kg, iv administered Q2D for 10 days relative to control; assay type: organism-based; set-up: dose 10 mg/kg, route intravenous; conditions: in vivo, 240 h
Mus musculus [10] = test: Toxicity in athymic nu/nu Harlan mouse xenografted with human SK-MEL-2 cells assessed as mortality at 20 mg/kg, iv administered Q3D for 10 days relative to control; assay type: organism-based; set-up: dose 20 mg/kg, route intravenous; conditions: in vivo, 240 h
Mus musculus [11] = test: Toxicity in athymic nu/nu Harlan mouse xenografted with human SK-MEL-2 cells assessed as change in body weight at 20 mg/kg, iv administered Q3D for 10 days relative to control; assay type: organism-based; set-up: dose 20 mg/kg, route intravenous; conditions: in vivo, 240 h
EKVX = test: Cytotoxicity against human EKVX cells after 48 hrs by SRB assay; assay type: functional
HOP-62 = test: Cytotoxicity against human HOP62 cells after 48 hrs by SRB assay; assay type: functional; conditions: HOP-62, 48 h
SR = test: Cytotoxicity against human SR cells after 48 hrs by SRB assay; assay type: functional
K562 = test: Cytotoxicity against human K562 cells after 48 hrs by SRB assay; assay type: functional; conditions: K562, 48 h
MOLT-4 = test: Cytotoxicity against human MOLT4 cells after 48 hrs by SRB assay; assay type: functional; conditions: MOLT-4, 48 h
BXPC-3 = test: Cytotoxicity against human BxPC3 cells after 72 hrs by MTT assay; assay type: functional; conditions: BXPC-3, 72 h
COLO 205 [12] = test: Cytotoxicity against human COLO205 cells after 72 hrs by MTT assay; assay type: functional; conditions: COLO 205, 72 h
NCI-H226 = test: Cytotoxicity against human NCI-H226 cells after 48 hrs by SRB assay; assay type: functional; conditions: NCI-H226, 48 h
COLO 205 [13] = test: Cytotoxicity against human COLO205 cells after 48 hrs by SRB assay; assay type: functional; conditions: COLO 205, 48 h, read-out: pGI50 (converted)
HCC 2998 = test: Cytotoxicity against human HCC2998 cells after 48 hrs by SRB assay; assay type: functional; conditions: HCC 2998, 48 h
HCT-15 = test: Cytotoxicity against human HCT15 cells after 48 hrs by SRB assay; assay type: functional; conditions: HCT-15, 48 h
HT-29 = test: Cytotoxicity against human HT-29 cells after 48 hrs by SRB assay; assay type: functional; conditions: HT-29, 48 h
SF-295 = test: Cytotoxicity against human SF295 cells after 48 hrs by SRB assay; assay type: functional; conditions: SF-295, 48 h, read-out: pGI50 (converted)
SF-539 = test: Cytotoxicity against human SF539 cells after 48 hrs by SRB assay; assay type: functional; conditions: SF-539, 48 h
SNB-19 = test: Cytotoxicity against human SNB19 cells after 48 hrs by SRB assay; assay type: functional; conditions: SNB-19, 48 h
SNB-75 = test: Cytotoxicity against human SNB75 cells after 48 hrs by SRB assay; assay type: functional; conditions: SNB-75, 48 h
M14 = test: Cytotoxicity against human M14 cells after 48 hrs by SRB assay; assay type: functional; conditions: M14, 48 h
SK-MEL-28 = test: Cytotoxicity against human SK-MEL-28 cells after 48 hrs by SRB assay; assay type: functional; conditions: SK-MEL-28, 48 h
SK-MEL-5 = test: Cytotoxicity against human SK-MEL-5 cells after 48 hrs by SRB assay; assay type: functional; conditions: SK-MEL-5, 48 h
OVCAR-4 = test: Cytotoxicity against human OVCAR4 cells after 48 hrs by SRB assay; assay type: functional; conditions: OVCAR-4, 48 h
[14] = Cytotoxicity against human NCI-ADR-RES cells after 48 hrs by SRB assay; assay type: functional
A498 = test: Cytotoxicity against human A498 cells after 48 hrs by SRB assay; assay type: functional; conditions: A498, 48 h
CAKI-1 = test: Cytotoxicity against human Caki1 cells after 48 hrs by SRB assay; assay type: functional; conditions: CAKI-1, 48 h
RXF 393 = test: Cytotoxicity against human RXF393 cells after 48 hrs by SRB assay; assay type: functional; conditions: RXF 393, 48 h
MCF7 = test: Cytotoxicity against human MCF7 cells after 48 hrs by SRB assay; assay type: functional; conditions: MCF7, 48 h

Question: With `CO[C@@H]([C@@H]1Cc2cc3cc(O[C@H]4C[C@@H](O[C@H]5C[C@@H](O)[C@H](O)[C@@H](C)O5)[C@H](O)[C@@H](C)O4)c(C)c(O)c3c(O)c2C(=O)[C@H]1O[C@H]1C[C@@H](O[C@H]2C[C@@H](O[C@H]3C[C@H](O)[C@H](O)[C@@H](C)O3)[C@H](O)[C@@H](C)O2)[C@H](O)[C@@H](C)O1)[C@@H](O)C(C)=O` as the molecule, how does the GI50 (MDA-MB-468) read?
Answer: 33.9 nM

Question: What about the MTD (Mus musculus [1]) of the same molecule?
Answer: 12 mg/kg

Question: What about the concentration at 5 min [2] of the same molecule?
Answer: 28 µM

Question: What about the TGI (COLO 205 [3]) of the same molecule?
Answer: Active

Question: And the TGI (SK-MEL-2 [4])?
Answer: Active

Question: What about the TGI (SK-MEL-2 [5]) of the same molecule?
Answer: Active

Question: What about the Activity (Mus musculus [6]) of the same molecule?
Answer: Non-toxic

Question: And the Activity (Mus musculus [7])?
Answer: Non-toxic

Question: And the Activity (Mus musculus [8])?
Answer: Non-toxic

Question: What about the Activity (Mus musculus [9]) of the same molecule?
Answer: Non-toxic

Question: What about the Activity (Mus musculus [10]) of the same molecule?
Answer: Non-toxic

Question: What about the Activity (Mus musculus [11]) of the same molecule?
Answer: Non-toxic

Question: What about the GI50 (EKVX) of the same molecule?
Answer: 85.1 nM

Question: What about the GI50 (HOP-62) of the same molecule?
Answer: 24.6 nM

Question: What about the GI50 (SR) of the same molecule?
Answer: 12.9 nM

Question: And the GI50 (K562)?
Answer: 17.4 nM

Question: And the GI50 (MOLT-4)?
Answer: 19.9 nM

Question: And the GI50 (BXPC-3)?
Answer: 300 nM

Question: And the GI50 (COLO 205 [12])?
Answer: 300 nM

Question: And the GI50 (NCI-H226)?
Answer: 20.4 nM

Question: And the GI50 (COLO 205 [13])?
Answer: 21.4 nM

Question: What about the GI50 (HCC 2998) of the same molecule?
Answer: 16.2 nM

Question: And the GI50 (HCT-15)?
Answer: 1050 nM

Question: And the GI50 (HT-29)?
Answer: 21.4 nM

Question: And the GI50 (SF-295)?
Answer: 19.9 nM

Question: What about the GI50 (SF-539) of the same molecule?
Answer: 25.1 nM

Question: What about the GI50 (SNB-19) of the same molecule?
Answer: 28.2 nM

Question: And the GI50 (SNB-75)?
Answer: 32.4 nM

Question: What about the GI50 (M14) of the same molecule?
Answer: 45.7 nM

Question: What about the GI50 (SK-MEL-28) of the same molecule?
Answer: 18.6 nM

Question: And the GI50 (SK-MEL-5; read-out: GI50)?
Answer: 16 nM

Question: And the GI50 (SK-MEL-5; read-out: pGI50 (converted))?
Answer: 17 nM

Question: What about the GI50 (OVCAR-4) of the same molecule?
Answer: 56.2 nM

Question: And the GI50 [14]?
Answer: 50100 nM

Question: And the GI50 (A498)?
Answer: 14.4 nM

Question: And the GI50 (CAKI-1)?
Answer: 138 nM

Question: What about the GI50 (RXF 393) of the same molecule?
Answer: 29.5 nM

Question: And the GI50 (MCF7)?
Answer: 13.8 nM
